From paper PMC12022909, “A Multicomponent Reaction-Based Platform Opens New Avenues in Aryl Hydrocarbon Receptor Modulation” (ACS Central Science, 2025)

Biological target: T1, AhR-GFP (Homo sapiens, UniProt P35869)
T1 construct: host or cells: MCF7, lentiviral transduction
Assay: MCF7 AhR-GFP.IRES.mCherry reporter, flow cytometry quantification of AhR protein levels
Type: cell-based
Conditions: 5 μM, 5 h
Procedure: Figure 6 Bifunctional AhR probes and AhR reporter in MCF7 cells. (a) Synthetic access to the conjugatable AhR ligand 5m. (b) Structure, yield, and EC50 value of the model amide 12a and MD simulation of AhR with 12a (last snapshot). (c) PROTAC-like compound 12b and dual probes 12c–d. Reaction conditions: (a) 5m (1 equiv), amine (1 equiv), HATU, DIPEA, DMF, rt, 24 h, Ar atm; (b) 5m (2 equiv), diamine (1 equiv), HATU, DIPEA, DMF, rt, 24 h, Ar atm. (d) General setup of the reporter system for quantifying AhR protein levels. (e) The population of MCF7 reporter cells (MCF7 AhR-GFP.IRES.mCherry) gated by flow cytometry and used for quantification of AhR. […] Values represent the ratio of the geometric mean of GFP and mCherry values in the gated population. (g) Change in protein levels relative to vehicle treatment (DMSO) in MCF7 cells treated with 12b at 10 μM for 5 h quantified by TMT labeling and LC/MS analysis versus p-Value. TEXT PRINTED IN THE PICTURE: (b) 12a: EC50 = 0.40 μM […]
To test the effect of these compounds on AhR abundance, we established a cellular reporter in the breast cancer cell line MCF7. AhR in this case is fused to GFP bearing an independently translated mCherry on the same transcript to allow correction for general transcriptional interference of treatments (Figure 6d,e). […]

T1 sequence (P35869 11-848): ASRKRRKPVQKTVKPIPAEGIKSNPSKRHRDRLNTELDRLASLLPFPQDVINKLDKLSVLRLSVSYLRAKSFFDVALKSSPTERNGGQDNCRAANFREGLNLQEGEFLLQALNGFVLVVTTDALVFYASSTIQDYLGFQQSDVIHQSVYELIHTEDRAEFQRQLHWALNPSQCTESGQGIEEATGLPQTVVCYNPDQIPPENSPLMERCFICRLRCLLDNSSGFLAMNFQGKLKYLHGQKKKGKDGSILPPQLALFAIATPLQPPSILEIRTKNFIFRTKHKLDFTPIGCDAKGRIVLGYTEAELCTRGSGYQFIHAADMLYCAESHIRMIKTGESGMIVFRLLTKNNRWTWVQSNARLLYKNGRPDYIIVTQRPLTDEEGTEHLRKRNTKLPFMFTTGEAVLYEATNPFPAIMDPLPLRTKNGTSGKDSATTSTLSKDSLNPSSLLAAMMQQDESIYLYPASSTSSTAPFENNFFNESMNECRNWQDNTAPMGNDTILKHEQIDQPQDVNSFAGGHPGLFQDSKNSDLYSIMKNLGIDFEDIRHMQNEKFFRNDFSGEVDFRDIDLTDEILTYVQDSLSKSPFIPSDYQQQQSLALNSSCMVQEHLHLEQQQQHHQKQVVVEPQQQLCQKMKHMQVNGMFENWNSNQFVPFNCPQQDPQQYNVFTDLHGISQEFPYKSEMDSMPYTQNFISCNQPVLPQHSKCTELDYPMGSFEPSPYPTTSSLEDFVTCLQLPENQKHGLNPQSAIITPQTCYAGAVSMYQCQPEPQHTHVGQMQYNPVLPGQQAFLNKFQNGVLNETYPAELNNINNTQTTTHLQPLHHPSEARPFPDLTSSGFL
T1 sequence (P08238 whole entry partner): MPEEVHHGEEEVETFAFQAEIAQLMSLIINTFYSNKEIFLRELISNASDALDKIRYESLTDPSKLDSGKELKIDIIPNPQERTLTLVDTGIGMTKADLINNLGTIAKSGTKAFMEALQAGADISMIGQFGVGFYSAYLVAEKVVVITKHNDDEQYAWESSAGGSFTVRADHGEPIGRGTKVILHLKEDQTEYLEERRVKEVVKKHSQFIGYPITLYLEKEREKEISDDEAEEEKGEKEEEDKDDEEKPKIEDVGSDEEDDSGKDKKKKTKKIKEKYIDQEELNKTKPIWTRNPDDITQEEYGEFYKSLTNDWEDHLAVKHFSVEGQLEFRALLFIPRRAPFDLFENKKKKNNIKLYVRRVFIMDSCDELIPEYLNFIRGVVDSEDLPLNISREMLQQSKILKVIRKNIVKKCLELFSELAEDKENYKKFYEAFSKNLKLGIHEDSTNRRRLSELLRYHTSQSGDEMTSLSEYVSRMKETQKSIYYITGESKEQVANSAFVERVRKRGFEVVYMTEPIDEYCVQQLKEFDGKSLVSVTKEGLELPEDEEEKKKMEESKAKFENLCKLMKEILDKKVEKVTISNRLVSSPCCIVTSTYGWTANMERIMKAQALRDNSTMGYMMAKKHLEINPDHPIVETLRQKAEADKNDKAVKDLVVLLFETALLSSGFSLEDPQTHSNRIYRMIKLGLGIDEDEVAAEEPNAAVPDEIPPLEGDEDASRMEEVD
T1 sequence (O00170 whole entry partner): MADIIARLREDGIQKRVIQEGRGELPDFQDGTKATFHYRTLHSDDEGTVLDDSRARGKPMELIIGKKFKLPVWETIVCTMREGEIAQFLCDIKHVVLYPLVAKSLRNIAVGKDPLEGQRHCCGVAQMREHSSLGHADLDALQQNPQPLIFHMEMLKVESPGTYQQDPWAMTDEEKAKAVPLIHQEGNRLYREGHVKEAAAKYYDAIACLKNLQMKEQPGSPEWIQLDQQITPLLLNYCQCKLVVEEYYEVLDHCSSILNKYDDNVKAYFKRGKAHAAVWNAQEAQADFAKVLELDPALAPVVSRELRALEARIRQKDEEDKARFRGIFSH

Compound: Cc1[nH]c2ccccc2c1-c1c2[nH]c3ccccc3c2cc2[nH]c3ccccc3c12 [5e]
- AhR degradation in reporter system: pronounced AhR degradation
